Measured values published in patent US5132429A, “Benzotriazole derivatives and fluorescence-emitting reagents thereof” (priority 1988, dated 1992).

Columns and labels:
[1] = molecular target: α1-AG (α1-acid glycoprotein); assay: Binding constant of basic drug to α1-AG by displacement of compound 1 (fluorescence probe method, Klotz formula); details: 0.1M phosphoric acid buffer pH 7.4; 3×10^-6 M α1-AG; compound 1 as probe
Method: (§1) Two different kinds of solutions, one containing α1 -AG and a compound of this invention listed above, the other containing α1 -AG, the compound of this invention, and a drug, are prepared to measure fluorescence intensity at the excitation. fluorescence wavelength, as shown in Table 2. According to the working curve made beforehand, the binding rate of the compound to α1 -AG in each solution is determined and the binding constant of a drug to α1-AG is calculated from the difference between the binding rates in the presence and the absence of a drug.
(§2) In the fluorescence cell made of quartz with a plug was placed the buffer solution of 0.1M phosphoric acid (2 ml) which pH is 7.4 and containig 1×10^-4 M α1 -AG, to which 5×10^-4 M aqueous solution of the compound 1 was added by 2 μl each with a microcylinder, which was prepared by dissolving about 3 mg of the compound 1 in 1N hydrochloric acid (1 ml), followed by diluting with water to make the total volume 200 times, and the resulting solution was mixed fully to determine fluorescence intensity at 508 nm (excitation wavelength: 418 nm).
(§3) For the buffer solution of 0.1M phosphoric acid (2 ml) which pH is 7.4 and containing 3×10^-6 M α1 -AG, the same procedure as in Example 1 was performed.
As for the other basic drugs shown in Table 3, binding constant were obtained according to the same manner as in Example 11.

α1-AG [2] = details: cited from earlier work
[3] = tested on: α1-AG (α1-acid glycoprotein); assay: Binding of compound to α1-AG by fluorescence titration, Scatchard analysis; details: for binding of the compound 1 to α1-AG: pH 7.4
Method: as §2, §3
The binding rate (X) of the compound 1 to α1 -AG was introduced from the following formula (1) [formula]
In this scheme, Fb is fluorescence intensity at some concentration of the compound 1 which was obtained in Experiment 1, Fp is fluorescence intensity at the same concentration of the compound 1 which was obtained in Example 2, and Fo is blank value.
The value introduced from the binding rate at each concentration of the compound 1 was plotted accoding to the formula (2) of Scatchard, whereby the binding parameter of the compound 1 to α1 -AG was obtained.
In this scheme, r is the amount of binding of the compound 1 per α1 -AG (1 mole), n is the number of binding site, Ka is the binding constant of the compound 1, Df is the concentration of the compound 1 which is free form.

Human Serum Albumine = assay: Fluorescence (excitation and fluorescence wavelength) with human serum albumin; format: physicochemical
Method: A solution containing a compound is added to a solution containing albumin and the mixed solution is subjected to determination of fluorescence intensity at excitation. fluorescence wavelength as shown in Table 2. According to the working curve on the standard albumin solution made beforehand, the concentration of albumin in the sample solution is determined.

α1-AG [4] = assay: Fluorescence (excitation and fluorescence wavelength) with α1-AG; format: physicochemical
Method: as §1
Sulfosalicylic acid is added to the sample solution containing α1 -AG to remove coexisting proteins, to which the solution containing a compound is added. The mixed solution is subjected to determination of fluorescence intensity at excitation. fluorescence wavelength as shown in Table 2. According to the working curve on the standard solution of α1 -AG, the concentration of α1-AG in the sample is determined.

| SMILES | log Kb (binding constant) [1] | Excitation Wavelength (Human Serum Albumine) [nm] | Fluorescence Wavelength (Human Serum Albumine) [nm] | Excitation Wavelength (α1-AG [4]) [nm] | Fluorescence Wavelength (α1-AG [4]) [nm] | other results |
| --- | --- | --- | --- | --- | --- | --- |
| CN(C)CCC=C1c2ccccc2CCc2ccccc21 [Amitriptyline] | 5.58 |  |  |  |  |  |
| CN(C)c1ccc(C(=N)c2ccc(N(C)C)cc2)cc1 [Auramin O] |  |  |  |  |  | binding strength to α1-AG (α1-AG [2]; Y. Sugiyama et al, Biochem. Pharmcol. 34(6), 821-829 (1985)): very weak |
| CCN(CC)c1ccc(-n2nc3cc(N)cc(Cl)c3n2)cc1 [Compound 1, 7-chloro-2-(p-diethylaminophenyl)-2H-benzotriazolyl-5-amine] |  | 415 | 505 | 418 | 508 | n (number of binding site) ([3]; 0.1M phosphoric acid buffer pH 7.4, 3×10^-6 M α1-AG, Scatchard): 0.40; binding of the compound 1 to α1-AG ([3]; 1×10^-4 M α1-AG, ex 418 nm, em 508 nm): all of the compound 1 bound to α1 -AG; binding of the compound 1 to α1-AG ([3]; 3×10^-6 M α1-AG): under an equilibrium condition |
| CNc1ccc(-n2nc3cc(N)cc(Cl)c3n2)cc1 [Compound 2, 7-chloro-2-(p-methylaminophenyl)-2H-benzotriazolyl-5-amine] |  | 385 | 480 | 396 | 482 |  |
| Nc1cc(Cl)c2nn(-c3ccc(Nc4ccccc4)cc3)nc2c1 [Compound 3, 7-chloro-2-(p-anilinophenyl)-2H-benzotriazolyl-5-amine] |  | 400 | 485 | 400 | 505 |  |
| Nc1cc(Cl)c2nn(-c3ccc(N4CCOCC4)cc3)nc2c1 [Compound 4, 7-chloro-2-(p-morpholinophenyl)-2H-benzotriazolyl-5-amine] |  | 383 | 465 | 396 | 502 |  |
| CCOC(=O)c1cc(N)cc2nn(-c3ccc(N(CC)CC)cc3)nc12 [Compound 5, Ethyl 6-amino-2-(p-diethylaminophenyl)-2H-benzotriazole-4-carboxylate] |  | 420 | 520 | 452 | 567 |  |
| CNCCCN1c2ccccc2CCc2ccccc21 [Desipramine] | 4.86 |  |  |  |  |  |
| COc1ccc([C@@H]2Sc3ccccc3N(CCN(C)C)C(=O)[C@@H]2OC(C)=O)cc1 [Diltiazem] | 5.40 |  |  |  |  |  |
| CN(C)CCCN1c2ccccc2CCc2ccccc21 [Imipramine] | 5.61 |  |  |  |  |  |
| COc1ccc2c(c1)N(C[C@H](C)CN(C)C)c1ccccc1S2 [Levomepromazine] | 6.01 |  |  |  |  |  |
| COC(=O)C1=C(C)NC(C)=C(C(=O)OCCN(C)Cc2ccccc2)C1c1cccc([N+](=O)[O-])c1 (stereo not shown) [Nicardipine] | 6.78 |  |  |  |  |  |
| CCC(c1ccccc1)c1c(O)c2ccccc2oc1=O (stereo not shown) [Phenprocoumon] |  |  |  |  |  | wavelength suitable for determination (α1-AG [2]; M. Otagiri et al., J. of Pharmaceutical Sciences 76(8), 646-649 (1987)): short |
| CC(C)NCC(O)COc1cccc2[nH]ccc12 (stereo not shown) [Pindolol] | 5.33 |  |  |  |  |  |
| CC(CN1c2ccccc2Sc2ccccc21)N(C)C (stereo not shown) [Promethazine] | 4.94 |  |  |  |  |  |
| CC(CN(C)C)CN1c2ccccc2CCc2ccccc21 (stereo not shown) [Trimipramine] | 5.54 |  |  |  |  |  |
